According to EP2565188A1, “Novel photoactivatable paclitaxel derivatives and uses thereof, in particular in cellbiology and cancer treatment” (Max-Planck-Gesellschaft zur Förderung der Wissenschaften …, priority 2011, dated 2013):

Tests used:
[1] = Solubility test of 10 µM solutions in 1:1000 DMSO:PIPES buffer; assay type: physicochemical
Protocol: 10 mM solutions of PTX derivatives in DMSO were prepared. All substances were soluble in DMSO at this concentration. 10 µM solutions of were obtained by 1:1000 dilution of the stock solution into 80 mM PIPES buffer pH 6.8, containing 2 mM MgCl2 and 1 mM EGTA. Table A: solubility test of 10 µM solutions of PTX derivatives in 1:1000 DMSO:PIPES buffer

[2] = Photocleavage study: irradiation at 360 nm, composition by HPLC; assay type: physicochemical; settings: 1 mM, 5% water in acetonitril, share of the labelled species
Protocol: The photolysis of the compounds 2'-Nvoc-PTX and 2',7-bisNvoc-PTX was followed by UV and HPLC analysis of the correspondent solutions after exposure to light at λmax = 360 nm (2.7 mW/cm^2).
3 ml of a 1 mM solution of caged PTX in acetonitrile containing 5% water was placed into a quartz cuvette and was exposed at 360 nm for different irradiation times. Aliquots of 50 µl were taken after various irradiation times, and each aliquot was splitted in two parts. 20 µl were diluted to 400 µl to obtain 50 µM solution for UV-Vis characterisation. The 30 µl left from each aliquot were injected into the HPLC (20 µl loop, analytical column) in order to estimate the composition of the irradiated mixture.
Photocleavage of compound 2',7-bisNvoc-PTX was expected to yield the mono-substituted species 2'-Nvoc-PTX and 7-Nvoc-PTX as intermediates that can be further photolyzed to afford free PTX. In fact, HPLC analysis (Fig. 1) confirmed the presence of 2'-Nvoc-PTX (retention time, r.t.= 16.7 min) and 7-Nvoc-PTX (r.t. = 18.2 min) together with the starting compound 2',7-bisNvoc-PTX (r.t. = 21.3 min) and the fully deprotected PTX (r.t. = 11.1 min). The ratio of these compounds within the composition of the irradiated mixture changes with the exposure dose. Fig. 2 and Table B below show the compositional evolution of the mixture with increasing irradiation time as obtained by HPLC analysis. […] However, the influence of other structural factors in the photolytic mechanism cannot be ruled out. Compound 7-Nvoc-PTX could also be isolated from the irradiated mixture in milligram scale. Table B. Molar composition of a solution of 2',7-bisNvoc-PTX (1 mM, 5% water in acetonitril) after different irradiation times, as determined by analysis of HPLC graphs (Fig. 2)

HeLa cells [3] = assay type: cell-based, Human; settings: 48 h
Protocol: (§1) Human cervix carcinoma cells, HeLa cells (#ACC57, DMSZ, Germany), were cultured in DMEM medium (Invitrogen) supplemented with 10% fetal calf serum (FCS, Gibco) in a humidified incubator at 37°C/5%CO2.
In order to evaluate the bioactivity of the caged PCT derivatives, their cytotoxicity was tested in vitro using HeLa cells. Cells were incubated with PTX and caged PTX derivatives at concentrations between 0.01 and 10 µM.
The effect of PTX and derivatives on cell vitality was measured in a combined assay determining cytotoxicity and cell number by propidium iodide (PI) staining. HeLa cells (2x10^4 cells/well) were diluted in cell culture medium (DMEM, 10 % FCS) and seeded in 96 well-plates (black plate, clear bottom, corning, Amsterdam, Netherlands). The culture medium was replaced after ~16h by compound supplemented medium (200 µL, DMEM, 10 % FCS, 1 % DMSO) or medium without compound (DMEM, 10 % FCS, 1 % DMSO) as a specific control. After 48 h, dead cells with permeable cell membranes were stained with PI ([…], 15 min at 37°C, 5% CO2) and the PI fluorescence intensity was measured with a fluorescence plate reader (excitation wavelength 530 nm, emission wavelength 620 nm, Tecan Infinite M1000, Austria). Subsequently, the cells were lysed with 2% Triton X-100 diluted in DMEM (0.3% Triton X-100 per well, 15 min at 37°C, 5% CO2 and the PI fluorescence was measured again. The vitality of the cells was calculated by the ratio of dead cells (DC) before lyses and the total cell number (TCN) after lyses (1-DC/TCN).

HeLa cells [4] = test: Live cell imaging of the microtubule network (Tubulin Tracker / DRAQ5, CLSM); assay type: cell-based, Human; settings: 24 h
Protocol: as §1
In order to visualize the influence of the PTX derivatives in the microtubule network of the cell, a live cell microscopy analysis of HeLa cells after incubation with 10 µM PTX derivatives for 24 hours was performed.
Specifically, microtubules and nuclei of HeLa cells were fluorescently stained with Tubulin Tracker (Invitrogen) and DRAQ5 (biostatus, United Kingdom) respectively, and imaged by a Leica TCS SP5 confocal laser scanning microscopy (CLSM). 30x10^4 HeLa cells were seeded in 8-well chamber slides (Lab-Tek, nunc, Germany) and the culture medium was replaced after ~16 h by compound supplemented medium (250 µL, DMEM, 10% FCS, 1% DMSO) or medium without compound (DMEM, 10% FCS, 1% DMSO) as a specific control. After 24h, cells were carefully washed with Hank's Buffered Saline Solution (HBSS, with Ca^2+ and Mg^2+, Invitrogen) and the buffer was replaced by a staining solution containing 250 nM Tubulin Tracker (Invitrogen) and 5 µM DRAQ5. The cells were stained for 30 min at 37°C/5% CO2 in a humidified incubator. The staining solution was replaced by HBSS and the cells were directly imaged with a 100x plan apochromat (1.4 NA) oil immersion objective on the CLSM system equipped with a CO2 incubator and a temperature control. Tubulin Tracker was excited with an argon laser (488 nm) and the emission was detected by 500-580 nm. DRAQ5 was excited with a HeNe laser (633 nm) and the emission was detected by 650-730 nm. The images have a voxel height and width of 90 nm. Bright field images grabbed with an Olympus IX-70 inverted microscope with a 20x phase contrast objective. Image processing performed with Leica LAS AF lite and ImageJ (Fiji).

## CC(=O)O[C@H]1C(=O)[C@@]2(C)[C@H]([C@H](OC(=O)c3ccccc3)[C@]3(O)C[C@H](OC(=O)[C@H](O)[C@@H](NC(=O)c4ccccc4)c4ccccc4)C(C)=C1C3(C)C)[C@]1(OC(C)=O)CO[C@@H]1C[C@@H]2O [PTX, Paclitaxel]
[1]; 10 µM in 1:1000 DMSO:PIPES buffer (80 mM, pH 6.8), time 1 hr
  solubility test (appearance of solution): clear solution
[1]; 10 µM in 1:1000 DMSO:PIPES buffer (80 mM, pH 6.8), time 8 hrs
  solubility test (appearance of solution): clear solution
[1]; 10 µM in 1:1000 DMSO:PIPES buffer (80 mM, pH 6.8), time 24 hrs
  solubility test (appearance of solution): Suspension
[1]; 10 µM in 1:1000 DMSO:PIPES buffer (80 mM, pH 6.8), time 30 hrs
  solubility test (appearance of solution): white precipitate
[1]; 10 µM in 1:1000 DMSO:PIPES buffer (80 mM, pH 6.8, 2 mM MgCl2, 1 mM EGTA), time 5 min
  solubility test (appearance of solution): clear solution
[2]; 360 nm (2.7 mW/cm^2), irradiation time 0 min
  Molar composition of a solution of 2',7-bisNvoc-PTX after irradiation: 0%
[2]; 360 nm, irradiation time 60 min
  Molar composition of a solution of 2',7-bisNvoc-PTX after irradiation: 0%
[2]; 360 nm, irradiation time 270 min
  Molar composition of a solution of 2',7-bisNvoc-PTX after irradiation: 1.7%
[2]; 360 nm, irradiation time 450 min
  Molar composition of a solution of 2',7-bisNvoc-PTX after irradiation: 6.0%
[2]; 360 nm, irradiation time 570 min
  Molar composition of a solution of 2',7-bisNvoc-PTX after irradiation: 10.6%
[2]; 360 nm, irradiation time 735 min
  Molar composition of a solution of 2',7-bisNvoc-PTX after irradiation: 18.5%
[2]; 360 nm, irradiation time 820 min
  Molar composition of a solution of 2',7-bisNvoc-PTX after irradiation: 21.2%
[2]; 360 nm, irradiation time 1585 min
  Molar composition of a solution of 2',7-bisNvoc-PTX after irradiation: 60.5%
HeLa cells [3]
  concentration at which cell vitality is significantly reduced: 0.1 µM
HeLa cells [4]; 10 µM
  cell morphology / mitosis in microscopy images: mitosis of HeLa cells was blocked
  microtubule staining by Tubulin Tracker (fluorescence CLSM): absence of the mitotic spindle stained with Tubulin Tracker
HeLa cells [4]; patterns similar between the compounds (Fig. 6)
  concentration triggering the multiple nuclei pattern: 2 nM
